# Patent US8470889B2 (TRT Pharma Inc., priority 2008, dated 2013)
# Residue numbers refer to the chain shown, from its start. Like-named read-outs stand apart in the source and are kept apart here.
# Key:
# LNCaP cells = assay: MTT cell growth inhibition, LNCaP;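 also: MTT formazan absorbance at 600 nm read after 72 h of compound exposure, IC50 fitted by nonlinear regression of dose-response curves, samples run in triplicate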
# Procedure: MDA PCa 2b was seeded at the same density in medium BRFF-HPC1 (Athena Enzyme Systems, Baltimore, Md., USA) supplemented with 20% FBS. After overnight incubation, the medium was changed to a fresh medium containing different concentrations of test compounds diluted from stock DMSO solution. The final concentration of DMSO is 0.5%. After 72 h of incubation with test compounds, 20 μL of 3-(4,5-dimethyl thiazol-2-yl)-2,5-diphenyltetrazolium bromide (MTT) solution (5 mg/mL in PBS) were added to each well and incubated further for 2 h. Next, the supernatant was aspirated and the MTT formazan formed by metabolically viable cells was dissolved in 100 μL of isopropanol. The plates were mixed for 30 min, and the absorbance was measured at 600 nm on a plate reader (FLUOstar OPTIMA, BMG LabTech). All samples were in triplicate. The IC50 values were determined from dose-response curves by nonlinear regression using PRISM v5.00 (GraphPad Software Inc, La Jolla, Calif., USA).
# The in vitro cytotoxicity of 1-20 were evaluated by MTT assays in a panel of prostate cancer cell lines, including LNCaP, MDA PCa 2b, 22Rv1, C4-2B and PC-3.
# T877A mutated AR = target: T1, T877A mutated AR (Homo sapiens, UniProt P10275, T878A); assay: Luciferase assay for AR transactivation, T877A AR, PC-3 cells; format: cell-based; conditions: 0.1 nM DHT; for suppression of DHT-induced transactivation of T877A AR: test compound 0.1-1 μM, PC-3 cells; for Antiandrogenic activity evaluated by luciferase assay in PC-3 cells T877A: test compound 1 μM
# T1 sequence (P10275 1-920 T878A): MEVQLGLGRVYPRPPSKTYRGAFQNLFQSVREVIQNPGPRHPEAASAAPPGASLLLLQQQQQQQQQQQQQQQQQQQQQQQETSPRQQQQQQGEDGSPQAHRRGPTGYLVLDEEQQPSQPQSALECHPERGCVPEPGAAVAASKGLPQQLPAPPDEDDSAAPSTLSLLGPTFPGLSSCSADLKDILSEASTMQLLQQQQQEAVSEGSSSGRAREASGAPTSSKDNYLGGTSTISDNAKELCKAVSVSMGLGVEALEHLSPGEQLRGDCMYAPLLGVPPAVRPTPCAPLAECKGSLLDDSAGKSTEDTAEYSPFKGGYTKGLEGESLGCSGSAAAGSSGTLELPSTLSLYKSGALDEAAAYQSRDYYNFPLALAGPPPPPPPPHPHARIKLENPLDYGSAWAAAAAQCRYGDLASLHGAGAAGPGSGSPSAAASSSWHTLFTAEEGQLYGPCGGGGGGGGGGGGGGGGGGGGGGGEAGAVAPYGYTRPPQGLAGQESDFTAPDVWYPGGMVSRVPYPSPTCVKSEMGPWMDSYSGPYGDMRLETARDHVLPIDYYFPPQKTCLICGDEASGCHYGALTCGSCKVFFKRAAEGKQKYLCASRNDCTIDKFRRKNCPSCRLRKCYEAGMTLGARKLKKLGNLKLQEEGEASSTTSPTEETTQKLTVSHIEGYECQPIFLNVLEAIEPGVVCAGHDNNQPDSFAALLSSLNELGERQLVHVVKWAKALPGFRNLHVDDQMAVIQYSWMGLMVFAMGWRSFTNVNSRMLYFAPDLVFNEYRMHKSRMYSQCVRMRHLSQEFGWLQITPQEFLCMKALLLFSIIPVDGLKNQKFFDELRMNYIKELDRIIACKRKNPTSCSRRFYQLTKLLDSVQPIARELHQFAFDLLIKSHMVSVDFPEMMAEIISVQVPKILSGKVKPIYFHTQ
# Procedure: (§1) PC-3 cells were transiently transfected with pCMV-MMTV-Luc, Renilla null luciferase and AR expressing plasmids. The cells were treated with 0.1 nM DHT with and without test compound for 24 hr. Relative luciferase activity was determined by dual luciferase assay kit (Promega), standardized to Renilla luciferase control and normalized to 0.1 nM DHT without test compound (100%).
# (§2) After 16 h, the cells were treated with 0.1 nM of DHT and test compounds at the designated concentration. After further 24 h, the cells were lysed in 100 μL/well passive lysis buffer, and 20 μL of the cell lysates was used for detection of the luciferase activity using Dual Luciferase Assay System (Promega). All experiments were run in triplicate. Relative luciferase activity is determined as the ratio of inducible firefly luciferase luminescence divided by the luminescence of the renilla luciferase control normalized to 0.1 nM DHT without test compounds.
# (§3) The potency of antagonistic activity: ++>+.
# wild-type human AR = target: T2, wild-type human AR (Homo sapiens, UniProt P10275); assay: Luciferase assay for AR transactivation, wild-type AR, PC-3 cells; format: cell-based; set-up: Antiandrogenic activity evaluated by luciferase assay in PC-3 cells WT: key to the marks not given beside the values; conditions: 0.1 nM DHT; for suppression of DHT-induced transactivation of wild-type AR: test compound 0.1-1 μM, PC-3 cells; for Antiandrogenic activity evaluated by luciferase assay in PC-3 cells WT: test compound 1 μM
# T2 construct: utilizing plasmid expressing a full length of AR; expressed in transfected cells; host or cells: PC-3 cells, plasmid pCMV-AR-wt
# T2 sequence (P10275 1-920): T1 sequence (P10275 1-920 T878A) with A878T
# Procedure: as §1, §2, §3
# PC-3 cells were transiently transfected with plasmid expressing wild type human AR and MMTV-Luc. […] RLU, relative luciferase units, were normalized to that of 0.1 nM DHT alone.
# [1] = read-out: Cellular IC50 (μM) LNCaP, Table 9
Structure (SMILES),IC50 (LNCaP cells; read-out: IC50 in LNCaP cells),suppression of DHT-induced transactivation of T877A AR (T877A mutated AR),suppression of DHT-induced transactivation of wild-type AR (wild-type human AR),IC50 (LNCaP cells; [1]),Antiandrogenic activity evaluated by luciferase assay in PC-3 cells T877A (T877A mutated AR),Antiandrogenic activity evaluated by luciferase assay in PC-3 cells WT (wild-type human AR)
CC1=C(/C=C/C(=O)/C=C/c2cccc(C(F)(F)F)c2)C(C)(C)CCC1O (racemic) [Compound B25],0.74 µM,dose-dependent activity,modest antiandrogenic activity,,,
CC1(C)CCC(O)C=C1/C=C/C(=O)/C=C/c1csc2ccccc12 (stereo not drawn) [Compound B92],,pure antagonists,,1.1 µM,++,++
CC1(C)CCC(O)C=C1/C=C/C(=O)/C=C/c1cnc2ccccc2c1 (stereo not drawn) [Compound B95],,effective,effective,0.63 µM,++,++
